Assay results: the NIST ThermoML archive (doi:10.1021/je700140j)
Numbers after ± are expanded uncertainties.

Assay: xn = mol fraction of the nth substance listed
Conditions: for surface tension liquid-gas: Ring tensiometer; for mass density / viscosity: 100.8 kPa, Liquid

OCCc1ccccc1 [2-phenylethanol] + CC(C)O
Conditions	mass density, 298.15 K [kg/m3]	mass density, 308.15 K [kg/m3]	mass density, 318.15 K [kg/m3]	surface tension liquid-gas, 298.15 K [mN/m]	surface tension liquid-gas, 308.15 K [mN/m]	surface tension liquid-gas, 318.15 K [mN/m]	viscosity, 298.15 K [mPa·s]	viscosity, 308.15 K [mPa·s]	viscosity, 318.15 K [mPa·s]
x2 = 0	1016.2 ± 0.39	1008.63 ± 0.37	1000.98 ± 0.36	39.43 ± 0.58	38.93 ± 0.57	38.35 ± 0.56	11.4 ± 0.14	7.518 ± 0.098	5.232 ± 0.071
x2 = 0.05	1009.41 ± 0.36	1002.31 ± 0.35	994.22 ± 0.35	38.1 ± 0.56	37.7 ± 0.55	37.2 ± 0.55	10.66 ± 0.13	7.05 ± 0.092	4.953 ± 0.068
x2 = 0.1	1002.07 ± 0.34	994.92 ± 0.34	986.78 ± 0.35	36.9 ± 0.54	36.58 ± 0.54	36.13 ± 0.53	9.933 ± 0.13	6.594 ± 0.087	4.645 ± 0.064
x2 = 0.15	994.41 ± 0.33	986.76 ± 0.35	978.99 ± 0.36	35.8 ± 0.53	35.47 ± 0.52	35.05 ± 0.52	9.256 ± 0.12	6.148 ± 0.081	4.366 ± 0.059
x2 = 0.2	986.36 ± 0.34	978.65 ± 0.35	970.82 ± 0.37	34.7 ± 0.51	34.38 ± 0.51	33.97 ± 0.5	8.618 ± 0.11	5.726 ± 0.076	4.103 ± 0.056
x2 = 0.25	977.95 ± 0.35	970.19 ± 0.36	962.28 ± 0.37	33.63 ± 0.5	33.28 ± 0.49	32.88 ± 0.49	8 ± 0.1	5.341 ± 0.071	3.85 ± 0.052
x2 = 0.3	969.14 ± 0.35	961.31 ± 0.37	953.36 ± 0.38	32.61 ± 0.48	32.23 ± 0.48	31.8 ± 0.47	7.407 ± 0.095	4.969 ± 0.067	3.6 ± 0.049
x2 = 0.35	959.91 ± 0.36	952.04 ± 0.38	943.99 ± 0.39	31.6 ± 0.47	31.19 ± 0.46	30.75 ± 0.46	6.858 ± 0.088	4.621 ± 0.062	3.362 ± 0.046
x2 = 0.4	950.21 ± 0.37	942.3 ± 0.39	934.2 ± 0.4	30.6 ± 0.45	30.17 ± 0.45	29.7 ± 0.44	6.35 ± 0.082	4.286 ± 0.058	3.132 ± 0.042
x2 = 0.45	940.02 ± 0.39	932.05 ± 0.4	923.92 ± 0.42	29.6 ± 0.44	29.16 ± 0.43	28.68 ± 0.43	5.862 ± 0.076	3.964 ± 0.053	2.912 ± 0.04
x2 = 0.5	929.31 ± 0.4	921.29 ± 0.42	913.06 ± 0.44	28.62 ± 0.43	28.16 ± 0.42	27.68 ± 0.41	5.412 ± 0.071	3.67 ± 0.049	2.713 ± 0.037
x2 = 0.55	918.04 ± 0.42	909.98 ± 0.43	901.7 ± 0.45	27.65 ± 0.41	27.17 ± 0.41	26.68 ± 0.4	4.978 ± 0.066	3.389 ± 0.046	2.524 ± 0.034
x2 = 0.6	906.21 ± 0.43	898.08 ± 0.44	889.7 ± 0.46	26.7 ± 0.4	26.2 ± 0.39	25.7 ± 0.39	4.571 ± 0.061	3.124 ± 0.042	2.342 ± 0.032
x2 = 0.65	893.62 ± 0.44	885.47 ± 0.46	877.03 ± 0.48	25.8 ± 0.39	25.3 ± 0.38	24.83 ± 0.38	4.173 ± 0.055	2.876 ± 0.039	2.162 ± 0.029
x2 = 0.7	880.35 ± 0.46	872.12 ± 0.48	863.6 ± 0.49	24.98 ± 0.38	24.48 ± 0.37	24 ± 0.36	3.793 ± 0.05	2.634 ± 0.035	1.989 ± 0.027
x2 = 0.75	866.25 ± 0.48	857.98 ± 0.49	849.39 ± 0.51	24.2 ± 0.37	23.68 ± 0.36	23.2 ± 0.35	3.438 ± 0.046	2.407 ± 0.032	1.823 ± 0.025
x2 = 0.8	851.34 ± 0.5	842.99 ± 0.52	834.3 ± 0.53	23.45 ± 0.36	22.9 ± 0.35	22.45 ± 0.35	3.101 ± 0.041	2.201 ± 0.03	1.665 ± 0.023
x2 = 0.85	835.47 ± 0.52	827.04 ± 0.54	818.29 ± 0.56	22.75 ± 0.35	22.2 ± 0.34	21.7 ± 0.34	2.808 ± 0.037	2.009 ± 0.027	1.526 ± 0.021
x2 = 0.9	818.57 ± 0.55	810.09 ± 0.57	801.28 ± 0.58	22.1 ± 0.34	21.5 ± 0.33	20.97 ± 0.33	2.541 ± 0.034	1.859 ± 0.025	1.415 ± 0.019
x2 = 0.95	800.54 ± 0.58	792 ± 0.6	783.08 ± 0.61	21.5 ± 0.33	20.8 ± 0.32	20.18 ± 0.32	2.281 ± 0.031	1.693 ± 0.023	1.298 ± 0.018
